Assay [1] deals with Prostaglandin G/H synthase 1 (Homo sapiens, UniProt P23219). As to the kind of experiment: In vitro inhibitory concentration against Prostaglandin G/H synthase 1 in human whole blood assay. In kind it is tissue-based.
Assay [2] has as its target T1, Prostaglandin G/H synthase 2 (Homo sapiens, UniProt P35354).
T1 sequence (P35354 whole entry): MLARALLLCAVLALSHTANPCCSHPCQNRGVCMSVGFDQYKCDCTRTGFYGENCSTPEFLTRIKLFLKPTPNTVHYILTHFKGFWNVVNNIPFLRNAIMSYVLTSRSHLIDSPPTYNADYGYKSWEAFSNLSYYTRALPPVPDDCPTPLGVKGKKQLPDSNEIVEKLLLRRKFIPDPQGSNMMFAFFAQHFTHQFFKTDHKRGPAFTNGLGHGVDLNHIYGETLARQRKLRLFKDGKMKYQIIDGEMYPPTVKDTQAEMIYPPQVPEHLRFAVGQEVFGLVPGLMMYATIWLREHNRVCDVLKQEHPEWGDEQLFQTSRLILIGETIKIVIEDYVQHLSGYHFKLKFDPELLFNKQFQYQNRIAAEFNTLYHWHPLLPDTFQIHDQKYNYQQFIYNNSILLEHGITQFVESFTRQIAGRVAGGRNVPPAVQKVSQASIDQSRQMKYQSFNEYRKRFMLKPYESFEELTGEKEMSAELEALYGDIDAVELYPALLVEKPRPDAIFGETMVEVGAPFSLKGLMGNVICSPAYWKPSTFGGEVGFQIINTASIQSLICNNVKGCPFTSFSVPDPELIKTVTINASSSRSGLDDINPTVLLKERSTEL
In kind it is tissue-based, Blood.
Description: In vitro inhibitory concentration against Prostaglandin G/H synthase 2 in human whole blood assay

Chain of Prostaglandin G/H synthase 1 (P23219 whole entry): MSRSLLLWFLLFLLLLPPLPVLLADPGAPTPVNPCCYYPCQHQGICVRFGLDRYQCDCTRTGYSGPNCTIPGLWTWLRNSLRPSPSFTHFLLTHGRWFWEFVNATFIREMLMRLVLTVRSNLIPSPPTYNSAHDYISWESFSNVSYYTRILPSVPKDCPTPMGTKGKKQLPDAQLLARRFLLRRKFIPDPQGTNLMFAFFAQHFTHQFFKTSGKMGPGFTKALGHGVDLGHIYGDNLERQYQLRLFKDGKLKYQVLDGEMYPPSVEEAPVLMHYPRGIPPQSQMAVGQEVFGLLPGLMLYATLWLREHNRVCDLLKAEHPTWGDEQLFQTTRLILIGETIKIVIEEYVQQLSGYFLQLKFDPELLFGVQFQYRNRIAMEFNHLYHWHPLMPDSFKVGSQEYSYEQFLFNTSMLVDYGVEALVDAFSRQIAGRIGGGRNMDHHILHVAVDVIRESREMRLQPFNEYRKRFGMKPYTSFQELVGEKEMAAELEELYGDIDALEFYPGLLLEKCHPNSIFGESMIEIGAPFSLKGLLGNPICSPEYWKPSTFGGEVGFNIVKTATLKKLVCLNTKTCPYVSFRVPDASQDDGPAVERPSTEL

Broadly, the IC50 is the concentration at which inhibition is half-maximal. A low value points to higher potency. For `Cc1cc(C)c(S(N)(=O)=O)c(C)c1-c1noc(C)c1-c1ccccc1`, the 50% inhibitory concentration (IC50) in assay [1] and in assay [2] was over 100 µM in each case.
For the compound `Cc1onc(-c2ccc(Cl)o2)c1-c1ccc(S(N)(=O)=O)cc1`, the IC50 in assay [1] and in assay [2] was over 100 µM in each case.
For `COc1cc(OC)c(-c2noc(C)c2-c2ccccc2)c(OC)c1`, the half-inhibitory concentration (IC50) in assay [1] and in assay [2] was over 100 µM each time.
Take `COc1cc(OC)c(-c2noc(C)c2-c2ccc(S(N)(=O)=O)cc2)c(OC)c1Cl`: the IC50 in assay [1] and in assay [2] was over 100 µM each time.
`COc1cc(OC)c(-c2noc(C)c2-c2ccccc2)c(OC)c1Cl`: the half-maximal inhibitory concentration (IC50) in assay [1] and in assay [2] was over 100 µM each time.
For the compound `Cc1cc(C)c(S(N)(=O)=O)c(C)c1-c1noc(C)c1-c1ccc(S(N)(=O)=O)cc1`, the half-inhibitory concentration (IC50) in assay [1] and in assay [2] was over 100 µM each time.
`Cc1onc(-c2ccc(Cl)o2)c1-c1ccccc1`: the half-inhibitory concentration (IC50) in assay [2] was over 100 µM.
As to `Cc1cc(C)c(-c2noc(C)c2-c2ccccc2)c(C)c1`, the half-maximal inhibitory concentration (IC50) in assay [1] and in assay [2] was over 100 µM in each case.

The record behind these values is ChEMBL document CHEMBL1138763 (J Med Chem, 2004).
